Measured values published in paper PMC10239968, “[^18F]AlF-NOTA-ADH-1: A new PET molecular radiotracer for imaging of N-cadherin-positive tumors” (Frontiers in Oncology, 2023).

Legend:
[1] = In vitro stability in PBS; type: physicochemical; conditions: 3.7 MBq in 0.5 mL PBS, 37 °C (results; method: room temperature), radio-TLC or radio-HPLC
Procedure: The stability of [^18F]AlF-NOTA-ADH-1 was tested in PBS and bovine serum. In brief, 3.7 MBq of[^18F]AlF-NOTA-ADH-1 was pipetted into 0.5 mL of PBS and incubated in PBS at room temperature or bovine serum at 37°C. For the study, an aliquot of the solution was directly taken at 1, 6, and 8 h after incubation, and the radiochemical purity was determined by radio-TLC or radio-HPLC under identical conditions.

in vivo = type: in vivo, BALB/c nu/nu mice; conditions: female, BALB/c nu/nu, mouse, in vivo, iv, total radioactivity
Procedure: (§1) All animal experiments were performed in accordance with and approved by the Institutional Animal Care and Use Committee guidelines of the First Affiliated Hospital of Zhejiang University School of Medicine. BALB/c nu/nu mice (female, 20 ± 3 g, 4- to 6-week-old; Department of Laboratory Animal Science, Zhejiang University) were used in this study. The SW480 and BxPC3 xenografts were generated, and 5×10^6 tumor cells were subcutaneously injected into the flanks of female athymic nude mice. The PDX-bearing mouse models were established as follows. Pancreatic cancer (diagnosed as pancreatic ductal adenocarcinoma) tissues were obtained from the surgery of a patient. Written informed consent was obtained from the patient, and the research protocol was approved by the Clinical Research Ethics Committee of the First Affiliated Hospital of Zhejiang University School of Medicine. The sample was sectioned into about 1mm^3 pieces, and the tumor tissues were subcutaneously implanted into BALB/c nu/nu mice flanks. Mice were allowed free access to sterile water and food and were kept under strict disease-free conditions with controlled temperature (~25°C), humidity (50-70%), and circadian rhythms (12-hour light/dark cycles). All necessary procedures were carried out to minimize discomfort and avoid the waste of animals. The length and width of the tumor were measured every other day. Biodistribution studies and positron emission tomography in mice were performed after the tumor volume reached 150 to 200 mm^3.
(§2) The BALB/c nude mice were randomized into different tumor models (SW480, BxPC3, and pancreatic PDX), including 5 mice per group. Each nude mouse was injected with 0.74MBq (20μCi) [^18F]AlF-NOTA-ADH-1 through the caudal vein. Blood was collected from the orbit, and the mice were dissected to collect the brain, heart, lung, liver, liver, spleen, stomach, intestine, muscle, bone and others at 30 min, […], 60min, 90min and 120min after injection. In the blocked group, the study was performed with a saturating dose of ADH-1 (20 mg/kg of mouse body weight) intravenously administered 60min before the intravenous injection of [^18F]AlF-NOTA-ADH-1 in the pancreatic PDX model and SW480 xenograft model. The mice in the tumor xenograft model were sacrificed 1h after [^18F]AlF-NOTA-ADH-1 injection. The nude mice were dissected, and tumor tissues and related tissues (blood, brain, heart, lung, liver, spleen, kidney, stomach, intestine, muscle and bone) were weighed, and their radioactivity was measured by γ-counter. The radioactivity results were recorded as % ID/g.

BxPC3 tumor xenografts = assay: in vivo; type: in vivo, BALB/c nu/nu mice; conditions: for T/Blood ratio / T/Muscle ratio / Tumor uptake: BxPC3 xenograft nude mice, n=5, mean±SD
Procedure: as §1, §2

[2] = 0.74 MBq (20 uCi) per mouse, Kidney uptake

Compound: CC(=O)N[C@H]1CSSC[C@@H](C(=O)NCCNC(=O)CN2CCN(CC(=O)O)CCN(CC(=O)O)CC2)NC(=O)[C@H](C(C)C)NC(=O)[C@H](C)NC(=O)[C@H](Cc2c[nH]cn2)NC1=O [[^18F]AlF-NOTA-ADH-1]
- Radiochemical purity after 8 h in PBS [1]: about 95.5%
- tissue uptake at 1 h (in vivo; [2]): 10.2 ± 0.47 %ID/g
- tissue uptake at 1.5 h (in vivo; [2]): 9.39 ± 0.75 %ID/g
- tissue uptake at 2 h (in vivo; [2]): 6.61 ± 0.87 %ID/g
- tissue uptake at 0.5 h (in vivo; 0.74 MBq, Muscle uptake): 1.03 ± 0.4 %ID/g
- tissue uptake at 0.5 h (in vivo; 0.74 MBq, Pancreas uptake): 0.23 ± 0.08 %ID/g
- tissue uptake at 1 h (in vivo; 0.74 MBq, Pancreas uptake): 0.61 ± 0.09 %ID/g
- tissue uptake at 1.5 h (in vivo; 0.74 MBq, Pancreas uptake): 0.49 ± 0.23 %ID/g
- tissue uptake at 2 h (in vivo; 0.74 MBq, Pancreas uptake): 0.65 ± 0.11 %ID/g
- Tumor tissue uptake (BxPC3 tumor xenografts; BxPC3 tumor model): no significant uptake
- T/Blood ratio (BxPC3 tumor xenografts; 30min p.i.): 3.18± 0.08
- T/Muscle ratio (BxPC3 tumor xenografts; 30min p.i.): 0.86±0.21
- Tumor uptake (BxPC3 tumor xenografts; 30min p.i.): 0.89±0.12 %ID/g
- T/Blood ratio (BxPC3 tumor xenografts; 60min p.i.): 4.22±0.23
- T/Muscle ratio (BxPC3 tumor xenografts; 60min p.i.): 0.96±0.32
- Tumor uptake (BxPC3 tumor xenografts; 60min p.i.): 1.07±0.36 %ID/g
- T/Blood ratio (BxPC3 tumor xenografts; 90min p.i.): 5.45±0.10
- T/Muscle ratio (BxPC3 tumor xenografts; 90min p.i.): 0.66±0.19
- Tumor uptake (BxPC3 tumor xenografts; 90min p.i.): 0.60±0.12 %ID/g
- T/Blood ratio (BxPC3 tumor xenografts; 120min p.i.): 1.42±0.13
- T/Muscle ratio (BxPC3 tumor xenografts; 120min p.i.): 0.63±0.23
- Tumor uptake (BxPC3 tumor xenografts; 120min p.i.): 0.37±0.07 %ID/g
